Test [1] relates to HeLa cells. Put plainly: Extracellular acidification rates (ECAR), Seahorse XF24 flux analyser. Type of test: cell-based, human. The following applies: 1 µM, both siCtrl- and siOPA1-transfected cells. From the text: (§1) The inventors assessed oxygen consumption rates (OCR), a direct measure of oxidative phosphorylation activity, and extracellular acidification rates (ECAR), representative of glycolysis, since it accounts for approximately 80% of acidification (Wu et al., 2007, Xie et al., 2009), using the Seahorse XF24 flux analyser (Seahorse Bioscience Inc, North Billerica, MA, USA). Basal respiration was 38% lower in siOPA1-transfected HeLa cells than siCtrl-treated cells (Figure 1). Furthermore, ATP-linked respiration measured in the presence of oligomycin, which inhibits ATP synthase, was reduced by 40%. The maximal OCR measured in the presence of the protonophore FCCP, which uncouples oxidation and phosphorylation, was reduced by 58%. […] Indeed, citrate synthase activity and quantity and HSP60, VDAC, and TOM20 levels were unchanged (Figures 18 and 19).
Oxygen consumption rates (OCR) and extracellular acidification rates (ECAR) were measured using the XF24 Extracellular Flux Analyser (Seahorse Bioscience, North Billerica, MA). HeLa cells (15.103) transfected with siCtrl or siOPA1 were plated on XF24 microplates three days before OCR measurements. Dual-analyte sensor cartridges were soaked in XF Calibrant Solution (Seahorse Biosciences) in 24-well cell-culture microplates overnight at 37°C to hydrate. […]

For test [2], the system named is HeLa cells. Put plainly: Oxygen consumption rates (OCR), Seahorse XF24 flux analyser. It is filed as cell-based, human. The following applies: for effect on OCR / mitochondrial respiration: rotenone 1 µM plus antimycin A 1 µM, siOPA1- and siCtrl-transfected cells; for oxygen consumption due to mitochondrial respiration: shown by rotenone plus antimycin, both siOPA1- and siCtrl-transfected cells.
Description: as §1
Oxygen consumption rates (OCR) and extracellular acidification rates (ECAR) were measured using the XF24 Extracellular Flux Analyser (Seahorse Bioscience, North Billerica, MA). HeLa cells (15.103) transfected with siCtrl or siOPA1 were plated on XF24 microplates three days before OCR measurements. Dual-analyte sensor cartridges were soaked in XF Calibrant Solution (Seahorse Biosciences) in 24-well cell-culture microplates overnight at 37°C to hydrate. Approximately one hour prior to experimentation, injection ports on the sensor cartridge were filled with oligomycin (1 µM), Carbonyl cyanide 4-(trifluoromethoxy) phenylhydrazone (FCCP) (1 µM), and rotenone (1 µM) plus antimycin A (1 µM). Plates were then loaded into the XF24 instrument for calibration. For measuring oxygen consumption, the DMEM growth media of HeLa cells was replaced by DMEM supplemented with NaCl (143 mM), Phenol Red (3 mg/ml), glucose (10 mM), glutamine (2 mM), and pyruvate (2 mM) at pH 7.4, and the plates maintained at 37°C 1 h prior to experimentation. Plates were then loaded into the Seahorse XF24 analyser following the manufacturer's instructions.

Regarding `CC[C@H]1/C=C/C=C/C[C@@H](C)[C@H](O)[C@@](C)(O)C(=O)[C@@H](C)[C@H](O)[C@@H](C)C(=O)[C@@H](C)[C@H](O)[C@@H](C)/C=C/C(=O)O[C@@H]2[C@H](C)[C@H](CC1)O[C@]1(CC[C@H](C)[C@H](C[C@@H](C)O)O1)[C@H]2C` [oligomycin], in the test with HeLa cells [1], the “effect of oligomycin injection on ECAR” value is “increased”.

antimycin A: the “effect on OCR / mitochondrial respiration” value with HeLa cells [2] is “inhibited mitochondrial respiration”; with HeLa cells [2] (listed as antimycin) it was “considerably decreased”. The “oxygen consumption due to mitochondrial respiration” value with HeLa cells [2] is given as “more than 95%”.

For `C=C(C)[C@H]1Cc2c(ccc3c2O[C@@H]2COc4cc(OC)c(OC)cc4[C@@H]2C3=O)O1` [rotenone], in the test on HeLa cells [2], the “effect on OCR / mitochondrial respiration” value is “inhibited mitochondrial respiration” and the “oxygen consumption due to mitochondrial respiration” value was “more than 95%”. Moreover, in the test on HeLa cells [2] (listed as Rotenone), the “effect on OCR / mitochondrial respiration” value is “considerably decreased”.
